Measured values published in ChEMBL document CHEMBL4368916, “Design, Synthesis, and Biological Evaluation of Retinoic Acid-Related Orphan Receptor γt (RORγt) Agonist Structure-Based Functionality Switching Approach from In House RORγt Inverse Agonist to RORγt Agonist” (J Med Chem, 2019).
Activity calls are given as the source filed them. No cut-off for these calls is given here.

How the values were obtained:
[1] = AUC (0 to 8 hrs) in ICR mouse at 0.1 mg/kg, iv or 1 mg/kg, po by LC/MS/MS analysis; assay type: ADME, organism-based; conditions: in vivo
[2] = Oral bioavailability in ICR mouse at 1 mg/kg by LC/MS/MS analysis; assay type: ADME, organism-based; conditions: in vivo
[3] = Cmax in ICR mouse at 0.1 mg/kg, iv or 1 mg/kg, po by LC/MS/MS analysis; assay type: ADME, organism-based; conditions: in vivo
[4] = molecular target: Cytochrome P450 3A4 (Homo sapiens, UniProt P08684); experiment: Inhibition of CYP3A4 (unknown origin) at 10 uM; assay type: ADME
Cytochrome P450 3A4, sequence (P08684 whole entry): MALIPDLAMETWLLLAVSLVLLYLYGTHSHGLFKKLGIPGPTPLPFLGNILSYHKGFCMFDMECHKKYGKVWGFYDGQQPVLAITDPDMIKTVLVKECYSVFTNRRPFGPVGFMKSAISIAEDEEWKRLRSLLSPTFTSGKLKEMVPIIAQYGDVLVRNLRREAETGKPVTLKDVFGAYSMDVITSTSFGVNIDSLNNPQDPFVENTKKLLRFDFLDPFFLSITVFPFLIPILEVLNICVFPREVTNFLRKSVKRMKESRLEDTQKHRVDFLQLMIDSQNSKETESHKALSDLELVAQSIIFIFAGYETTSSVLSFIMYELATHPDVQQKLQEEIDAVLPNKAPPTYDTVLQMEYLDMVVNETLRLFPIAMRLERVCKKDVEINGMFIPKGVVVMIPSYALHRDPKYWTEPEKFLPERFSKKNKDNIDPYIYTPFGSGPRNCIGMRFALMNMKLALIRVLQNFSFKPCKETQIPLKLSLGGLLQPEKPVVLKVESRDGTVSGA

[5] = molecular target: T1, Nuclear receptor ROR-gamma (Mus musculus) (UniProt P51450); experiment: Agonist activity at RORgammat in mouse naive CD4+ T cells assessed as induction of IL17 production at 0.1 to 3 uM after 4 days by ELISA; assay type: cell-based
T1 sequence (whole entry): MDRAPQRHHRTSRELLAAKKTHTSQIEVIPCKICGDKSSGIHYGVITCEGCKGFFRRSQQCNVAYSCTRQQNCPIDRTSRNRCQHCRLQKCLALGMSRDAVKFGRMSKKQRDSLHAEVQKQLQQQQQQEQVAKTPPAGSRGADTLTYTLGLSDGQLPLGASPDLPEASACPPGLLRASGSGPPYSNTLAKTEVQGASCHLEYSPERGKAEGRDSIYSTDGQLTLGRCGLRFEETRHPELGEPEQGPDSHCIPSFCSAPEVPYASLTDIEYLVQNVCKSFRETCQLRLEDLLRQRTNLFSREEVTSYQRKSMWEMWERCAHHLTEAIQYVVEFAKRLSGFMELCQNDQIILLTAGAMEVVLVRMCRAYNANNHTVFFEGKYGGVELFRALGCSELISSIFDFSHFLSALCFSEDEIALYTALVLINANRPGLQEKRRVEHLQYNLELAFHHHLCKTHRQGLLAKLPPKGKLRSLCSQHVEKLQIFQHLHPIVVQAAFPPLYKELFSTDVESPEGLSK

[6] = MRT in ICR mouse at 0.1 mg/kg, iv or 1 mg/kg, po by LC/MS/MS analysis; assay type: ADME, organism-based; conditions: in vivo
[7] = test system: HepG2; experiment: Cytotoxicity against human HepG2 cells at 100 uM; assay type: cell-based; conditions: hepg2, 100 µM
[8] = molecular target: T1, Nuclear receptor ROR-gamma (Mus musculus); experiment: Inverse agonist activity at RORgammat in mouse naive CD4+ T cells assessed as […] of IL17 production at 0.001 to 10 uM after 4 days by ELISA; assay type: cell-based

Row | SMILES | AUC(0-t) [1] [ng·h/mL] | bioavailability [2] [%] | Cmax [3] [ng/mL] | inhibition (INH) [4] | Activity [5] | MRT [6] [h] | Activity [7] | Activity [8]
1 | CCOc1ccccc1CN1CCc2cc(NC(=O)[C@H]3c4ccc(OC)nc4CCN3C(=O)CCCC(=O)O)ccc21 | 1720 | 19 | 227 | Not Active | Dose-dependent effect | 4.1 | Non-Toxic | 
2 | COc1ccc2c(n1)CCN(C(=O)CCCC(=O)O)[C@H]2C(=O)Nc1cc(F)c2c(c1)CCC2(C)C |  |  |  |  |  |  |  | Active
3 | CCOc1ccccc1CN1CCc2cc(NC(=O)[C@H]3c4ccc(OC)nc4CCN3C(C)=O)ccc21 |  |  |  |  | Dose-dependent effect |  |  | 
